Data from article PMC10443802, “Targeting a xenobiotic transporter to ameliorate vincristine-induced sensory neuropathy” (JCI Insight, 2023).
Where “and” joins values, the source holds several entries; their conditions need not be identical. Equal entries are not always repeated.

Columns and labels:
[1] = conventional chronic regimen; cited from earlier work
[2] = tested on: P388D1; conditions: vincristine 1 μM, 30 min, nilotinib 10 μM
Description: (A) Gene expression of the OATP1B2 gene in L1210 and P388D1 murine leukemia cells
normalized to total protein levels. All data presented represent the mean (bars) ± SEM (error bars).

[3] = biological target: rOCT1 (Rattus norvegicus, UniProt Q63089); assay: Vincristine uptake screen, HeLa cells overexpressing rOCT1; assay type: in vitro ADME
Experimental: (§1) Relative uptake is expressed as percentage change compared with empty vector controls (n = 4–14 per group). […] Human OATP1B1 and OATP1B3 transporter–overexpressed cells were used as positive controls; empty vector controls were used as the negative control. […] Mechanical allodynia (C), thermal hyperalgesia (D), and sciatic nerve maximal action potential amplitudes (E) are expressed as percentage change relative to baseline values (n = 6–8 per group). Statistical analysis was performed using a 2-way ANOVA with Bonferroni’s post hoc test. **P < 0.01, ***P < 0.001, ****P < 0.0001, compared with baseline values. […] Data are shown as mean ± SEM. […]
(§2) transfected with transporters of interest, including hOAT1, hOAT3, hOAT4, hOATP1A2, hOATP3A1, hOATP4A1, hOATP5A1, hOATP1C1, hOATP1B1, hOATP1B3, hOATP2B1, hOCT1, hOCT2, hOCTN1, hOCTN2, hASBT, hNTCP, hNPT1, hMATE1, hOSTα/β, hPEPT1, hPEPT2, rOatp1a1, rOatp1a4, rOatp1a5, rOatp1b2, rNtcp, rAsbt, rOat1, and rOct1. Cells were transfected with expression plasmid or vector control lacking any insert using Lipofectin reagent (Invitrogen). Sixteen hours thereafter, cells were washed with transport media (OPTIMEM, Invitrogen) and treated with radiolabeled drug. […] The cellular radioactivity was quantified by liquid scintillation counting as described above. […]

[4] = biological target: mMATE1 (Mus musculus, UniProt Q8K0H1); assay: Substrate uptake in HEK293 cells overexpressing mMATE1; conditions: HEK293 mouse MATE1
Experimental: on OATP1B1, OATP1B3, or OATP1B2 function was evaluated using EβG (Axxora LLC) as the

[5] = biological target: rOATP1A5 (Rattus norvegicus, UniProt O88397); assay: Vincristine uptake screen, HeLa cells overexpressing rOATP1A5; assay type: in vitro ADME
Experimental: as §1, §2

[6] = biological target: hOATP1A2 (Homo sapiens, UniProt P46721); assay: Substrate uptake in HEK293 cells overexpressing hOATP1A2; conditions: HEK293 OATP1A2
Description: transfected with transporters of interest, including hOAT1, hOAT3, hOAT4, hOATP1A2, hOATP3A1, hOATP4A1, hOATP5A1, hOATP1C1, hOATP1B1, hOATP1B3, hOATP2B1, hOCT1, hOCT2, hOCTN1, hOCTN2, hASBT, hNTCP, hNPT1, hMATE1, hOSTα/β, hPEPT1, hPEPT2, rOatp1a1, rOatp1a4, rOatp1a5, rOatp1b2, rNtcp, rAsbt, rOat1, and rOct1. Cells were transfected with expression plasmid or vector control lacking any insert using Lipofectin reagent (Invitrogen). Sixteen hours thereafter, cells were washed with transport media (OPTIMEM, Invitrogen) and treated with radiolabeled drug. At various time intervals, cells were washed three times with ice-cold PBS and then lysed with 1% sodium dodecyl sulfate. The cellular radioactivity was quantified by liquid scintillation counting as described above. Similar analyses were performed in HEK293 cells transfected with hOATP1A2, hOATP1C1, mMATE1, and hMATE1, with cells seeded in poly lysine pre-coated 12-well plates. For hOATP1A2 and hOATP1C1, transient transfections were performed with either an empty vector, OATP1A2, or OATP1C1 using Lipofectamine 2000 according to the manufacturers protocol (Invitrogen). At 48 h post transfection, […]
(§3) Samples were analyzed using real-time quantitative PCR and Taqman Probes (Applied Biosystems). The relative gene expression was determined using the ΔΔCt method, and normalized to the mouse or human housekeeping gene, GAPDH. […]

[7] = tested on: OATP1B3 protein variants; assay: Vincristine transport by OATP1B3 single-nucleotide variants; assay type: in vitro ADME, human; conditions: single-nucleotide substitutions
Experimental: Figure S2. […] (A) Single […]
nucleotide polymorphisms (SNPs) activity percentage of OATP1B3 over-expressed cell after treated […]
Statistical analysis was performed using one-way ANOVA with Dunnett’s […]
(B) Schematic overview of […]
week (cumulative dose of 4 mg/kg). Von-Frey tests were performed on day -1, 9, 16, 18, and 23. Thermal hyperalgesia (Hargreaves test) and nerve conduction studies of the sciatic and caudal nerve were measured on days -1 and 23. Tissue samples for morphologic evaluation were obtained on day 24. (C) […]
and OATP1B2- deficient groups.
Normalized mechanical allodynia (E) was expressed as a percentage change relative to baseline values (n = 6-8 per group). Statistical

[8] = biological target: hOAT4 (Homo sapiens, UniProt Q9NSA0); assay: Vincristine uptake screen, HeLa cells overexpressing hOAT4; assay type: in vitro ADME
Experimental: as §1
as §2, with “(Invitrogen).” for “(Invitrogen). Sixteen hours thereafter, cells were washed with transport media (OPTIMEM, Invitrogen) and treated with radiolabeled drug.”
as §3

[9] = biological target: hOATP5A1 (Homo sapiens, UniProt Q9H2Y9); assay: Vincristine uptake screen, HeLa cells overexpressing hOATP5A1; assay type: in vitro ADME
Experimental: as §1, §2

[10] = tested on: RS411; assay: Cytotoxicity of vincristine with or without nilotinib, MTT assay, RS411; assay type: cell-based, human; conditions: RS411 cells, vincristine alone, individual replicates
[11] = biological target: hOAT1 (Homo sapiens, UniProt Q4U2R8); assay: Vincristine uptake screen, HeLa cells overexpressing hOAT1; assay type: in vitro ADME
Experimental: as §1
as §2, with “(Invitrogen).” for “(Invitrogen). Sixteen hours thereafter, cells were washed with transport media (OPTIMEM, Invitrogen) and treated with radiolabeled drug.”
as §3

Chain of hOAT4 (Q9NSA0 whole entry): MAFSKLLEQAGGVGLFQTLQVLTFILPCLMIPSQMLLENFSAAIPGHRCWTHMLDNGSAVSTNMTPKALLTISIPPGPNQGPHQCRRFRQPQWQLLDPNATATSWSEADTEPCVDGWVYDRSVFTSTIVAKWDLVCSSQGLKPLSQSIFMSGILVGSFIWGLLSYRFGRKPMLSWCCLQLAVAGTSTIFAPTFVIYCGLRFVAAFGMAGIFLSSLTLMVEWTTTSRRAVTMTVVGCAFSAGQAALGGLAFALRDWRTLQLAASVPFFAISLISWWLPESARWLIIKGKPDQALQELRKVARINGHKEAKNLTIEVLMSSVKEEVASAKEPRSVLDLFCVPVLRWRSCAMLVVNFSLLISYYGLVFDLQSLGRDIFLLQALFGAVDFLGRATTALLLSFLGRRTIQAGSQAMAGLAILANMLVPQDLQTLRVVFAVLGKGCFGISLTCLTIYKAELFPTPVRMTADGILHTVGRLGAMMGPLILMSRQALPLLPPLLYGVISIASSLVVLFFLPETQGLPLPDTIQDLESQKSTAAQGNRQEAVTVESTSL
Chain of rOCT1 (Q63089 whole entry): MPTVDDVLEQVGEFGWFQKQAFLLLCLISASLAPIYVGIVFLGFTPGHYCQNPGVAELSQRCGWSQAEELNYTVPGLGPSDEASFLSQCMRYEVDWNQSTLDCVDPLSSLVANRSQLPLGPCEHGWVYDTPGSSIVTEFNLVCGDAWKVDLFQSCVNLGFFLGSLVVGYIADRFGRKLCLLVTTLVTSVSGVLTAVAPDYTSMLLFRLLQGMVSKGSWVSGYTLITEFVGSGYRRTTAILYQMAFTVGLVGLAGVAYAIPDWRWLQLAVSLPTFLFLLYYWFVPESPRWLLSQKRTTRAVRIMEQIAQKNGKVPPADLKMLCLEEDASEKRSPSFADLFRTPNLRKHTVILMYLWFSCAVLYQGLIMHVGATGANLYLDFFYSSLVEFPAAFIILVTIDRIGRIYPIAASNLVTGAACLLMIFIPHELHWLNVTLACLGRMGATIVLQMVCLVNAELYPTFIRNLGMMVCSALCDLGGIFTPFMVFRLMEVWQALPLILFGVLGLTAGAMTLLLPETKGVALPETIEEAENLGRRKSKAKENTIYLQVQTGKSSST
Chain of rOATP1A5 (O88397 whole entry): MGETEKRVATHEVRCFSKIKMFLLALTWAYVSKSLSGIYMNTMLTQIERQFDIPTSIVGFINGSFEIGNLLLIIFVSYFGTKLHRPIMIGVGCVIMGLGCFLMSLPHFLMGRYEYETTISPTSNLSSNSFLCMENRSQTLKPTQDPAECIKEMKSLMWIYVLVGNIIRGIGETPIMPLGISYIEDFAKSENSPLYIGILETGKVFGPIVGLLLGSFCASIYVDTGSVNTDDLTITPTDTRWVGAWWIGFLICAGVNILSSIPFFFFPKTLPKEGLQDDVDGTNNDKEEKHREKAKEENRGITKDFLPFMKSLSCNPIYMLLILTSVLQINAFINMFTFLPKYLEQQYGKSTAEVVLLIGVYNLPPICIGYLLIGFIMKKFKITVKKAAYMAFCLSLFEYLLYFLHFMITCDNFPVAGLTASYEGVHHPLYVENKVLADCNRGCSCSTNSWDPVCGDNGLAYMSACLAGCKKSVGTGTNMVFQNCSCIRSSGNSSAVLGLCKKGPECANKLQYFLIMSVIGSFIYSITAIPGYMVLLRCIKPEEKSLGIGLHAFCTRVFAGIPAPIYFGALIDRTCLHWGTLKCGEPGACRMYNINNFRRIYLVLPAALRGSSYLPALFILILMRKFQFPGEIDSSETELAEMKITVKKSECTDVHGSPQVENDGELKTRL
Chain of hOAT1 (Q4U2R8 whole entry): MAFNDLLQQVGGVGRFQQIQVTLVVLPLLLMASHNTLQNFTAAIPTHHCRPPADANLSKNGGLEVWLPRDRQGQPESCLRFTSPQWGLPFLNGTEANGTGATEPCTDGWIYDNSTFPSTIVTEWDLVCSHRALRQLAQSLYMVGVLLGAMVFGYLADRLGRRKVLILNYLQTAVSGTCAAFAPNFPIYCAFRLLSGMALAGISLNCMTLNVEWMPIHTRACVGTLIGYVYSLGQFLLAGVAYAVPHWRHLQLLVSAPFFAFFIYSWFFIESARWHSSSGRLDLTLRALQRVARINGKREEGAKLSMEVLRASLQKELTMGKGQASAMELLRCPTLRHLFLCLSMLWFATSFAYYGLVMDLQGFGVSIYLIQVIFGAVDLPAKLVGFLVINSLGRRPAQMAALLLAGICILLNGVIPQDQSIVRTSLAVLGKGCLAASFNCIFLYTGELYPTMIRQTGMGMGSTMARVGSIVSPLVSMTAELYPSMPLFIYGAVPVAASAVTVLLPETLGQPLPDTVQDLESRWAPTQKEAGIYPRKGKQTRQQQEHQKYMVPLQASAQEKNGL
Chain of hOATP5A1 (Q9H2Y9 whole entry): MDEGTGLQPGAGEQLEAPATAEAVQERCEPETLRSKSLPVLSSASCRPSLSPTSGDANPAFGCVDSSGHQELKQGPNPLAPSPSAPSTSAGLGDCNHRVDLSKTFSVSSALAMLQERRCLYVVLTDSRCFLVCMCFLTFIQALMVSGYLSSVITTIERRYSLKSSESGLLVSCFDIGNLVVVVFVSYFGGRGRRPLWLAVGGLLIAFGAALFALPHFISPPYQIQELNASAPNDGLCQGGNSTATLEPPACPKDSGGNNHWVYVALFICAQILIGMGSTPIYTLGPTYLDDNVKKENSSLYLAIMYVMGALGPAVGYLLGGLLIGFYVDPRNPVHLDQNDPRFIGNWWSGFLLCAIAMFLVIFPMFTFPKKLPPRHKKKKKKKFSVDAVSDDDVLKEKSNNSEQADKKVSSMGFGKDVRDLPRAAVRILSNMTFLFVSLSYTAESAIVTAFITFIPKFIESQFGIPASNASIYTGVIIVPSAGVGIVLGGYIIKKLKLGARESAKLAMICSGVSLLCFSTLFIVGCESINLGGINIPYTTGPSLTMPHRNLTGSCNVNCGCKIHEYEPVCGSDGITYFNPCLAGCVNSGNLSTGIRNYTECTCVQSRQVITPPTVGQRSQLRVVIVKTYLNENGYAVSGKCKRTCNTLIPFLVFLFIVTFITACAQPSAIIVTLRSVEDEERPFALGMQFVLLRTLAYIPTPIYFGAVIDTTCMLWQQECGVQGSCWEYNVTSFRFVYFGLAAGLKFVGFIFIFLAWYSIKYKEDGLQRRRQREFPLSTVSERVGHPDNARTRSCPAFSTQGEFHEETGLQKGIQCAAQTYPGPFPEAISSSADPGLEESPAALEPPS
Chain of hOATP1A2 (P46721 whole entry): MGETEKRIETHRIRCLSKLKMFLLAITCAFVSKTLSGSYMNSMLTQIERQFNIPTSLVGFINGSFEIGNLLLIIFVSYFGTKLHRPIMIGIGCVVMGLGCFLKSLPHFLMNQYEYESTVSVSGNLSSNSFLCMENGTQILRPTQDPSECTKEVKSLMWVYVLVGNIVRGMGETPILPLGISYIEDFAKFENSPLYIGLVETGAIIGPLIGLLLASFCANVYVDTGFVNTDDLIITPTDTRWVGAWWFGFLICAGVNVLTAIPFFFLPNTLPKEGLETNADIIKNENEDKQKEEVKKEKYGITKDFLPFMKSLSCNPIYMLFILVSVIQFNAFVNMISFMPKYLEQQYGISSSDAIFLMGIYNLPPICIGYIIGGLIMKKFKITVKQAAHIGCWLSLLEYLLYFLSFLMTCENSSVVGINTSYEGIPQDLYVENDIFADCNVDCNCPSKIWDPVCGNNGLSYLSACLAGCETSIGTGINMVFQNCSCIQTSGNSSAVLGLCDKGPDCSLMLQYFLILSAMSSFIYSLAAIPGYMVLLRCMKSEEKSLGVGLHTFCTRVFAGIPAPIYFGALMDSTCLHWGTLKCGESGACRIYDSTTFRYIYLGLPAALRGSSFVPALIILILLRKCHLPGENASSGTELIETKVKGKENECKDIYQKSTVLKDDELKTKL
Chain of mMATE1 (Q8K0H1 whole entry): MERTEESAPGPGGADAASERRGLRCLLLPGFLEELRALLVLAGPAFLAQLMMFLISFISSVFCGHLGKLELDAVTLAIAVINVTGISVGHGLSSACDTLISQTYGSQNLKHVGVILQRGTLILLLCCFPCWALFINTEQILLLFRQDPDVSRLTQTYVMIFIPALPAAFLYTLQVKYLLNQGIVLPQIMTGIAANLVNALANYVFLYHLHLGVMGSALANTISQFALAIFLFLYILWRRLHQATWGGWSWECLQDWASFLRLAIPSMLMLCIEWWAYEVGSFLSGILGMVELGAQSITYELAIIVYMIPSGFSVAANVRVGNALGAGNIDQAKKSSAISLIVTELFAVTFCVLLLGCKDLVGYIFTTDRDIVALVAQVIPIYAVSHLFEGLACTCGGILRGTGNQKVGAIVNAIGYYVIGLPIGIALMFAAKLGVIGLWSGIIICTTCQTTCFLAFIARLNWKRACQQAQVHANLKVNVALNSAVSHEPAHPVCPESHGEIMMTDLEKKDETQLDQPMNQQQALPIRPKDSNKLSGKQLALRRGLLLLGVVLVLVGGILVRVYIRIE

Cc1cn(-c2cc(NC(=O)c3ccc(C)c(Nc4nccc(-c5cccnc5)n4)c3)cc(C(F)(F)F)c2)cn1 [Nilotinib, nilotinib]
Median time from start of therapy to onset of QT events [1]: > 14 months
Range of time from start of therapy to onset of QT events [1]: 2–68 months
Influence on uptake of vincristine [2]: did not influence the uptake of vincristine

CC[C@]1(O)C[C@H]2CN(CCc3c([nH]c4ccccc34)[C@@](C(=O)OC)(c3cc4c(cc3OC)N(C=O)[C@H]3[C@@](O)(C(=O)OC)[C@H](OC(C)=O)[C@]5(CC)C=CCN6CC[C@]43[C@@H]65)C2)C1 [Vincristine, vincristine]
Vincristine uptake (% of vector control) [3]: 113.00 % of vector control and 108.00 % of vector control and 138.00 % of vector control and 121.00 % of vector control
Contribution of transporter to cellular uptake of vincristine [4]: do not appreciably contribute to the cellular uptake of vincristine
Vincristine uptake (% of vector control) [5]: 107.00 % of vector control and 77.00 % of vector control and 126.00 % of vector control and 95.00 % of vector control and 111.00 % of vector control and 145.00 % of vector control and 98.00 % of vector control
Contribution of transporter to cellular uptake of vincristine [6]: do not appreciably contribute to the cellular uptake of vincristine
Transport by OATP1B3 protein variants [7]: impaired ability to transport vincristine
Vincristine uptake (% of vector control) [8]: 107.00 % of vector control and 81.00 % of vector control and 79.00 % of vector control and 90.00 % of vector control and 80.00 % of vector control and 99.00 % of vector control and 111.00 % of vector control and 113.00 % of vector control
Vincristine uptake (% of vector control) [9]: 109.00 % of vector control and 94.00 % of vector control and 90.00 % of vector control and 76.00 % of vector control and 77.00 % of vector control and 86.00 % of vector control and 80.00 % of vector control and 85.00 % of vector control
IC50 [10]: 4.81 nM and 6.23 nM and 4 nM and 8.42 nM and 6.45 nM and 7.46 nM and 5.33 nM and 4.58 nM and 7.35 nM
Vincristine uptake (% of vector control) [11]: 127.00 % of vector control and 112.00 % of vector control and 76.00 % of vector control and 98.00 % of vector control and 129.00 % of vector control and 120.00 % of vector control and 111.00 % of vector control and 117.00 % of vector control
